Values of other authors, collected in patent US8603452B1, “Method of preventing biofouling using an anti-fouling bio-hydrogel composition” (University of South Florida, priority 2007, dated 2013).
Like-named read-outs stand apart in the source and are kept apart here.

Key:
[1] = test system: biofouling; details: hydrogel coatings containing BAC, marine environment

Which diffusion coefficient (loss of BAC from hydrogel film, period from 12 to 50 hours, 13° C., freshwater) does the source give for benzalkonium chloride [BAC] here?
The diffusion coefficient was 7.3×10^−8 cm^2 s^−1.

What about the diffusion coefficient (rate of loss of the residual BAC from hydrogel film, 15° C.) of the same substance?
Its diffusion coefficient is 5.7×10^−10 cm^2 s^−1.

What about the “prevention of the development of biofouling (duration)” value [1] of the same substance?
The value was “up to 12 weeks”.
